Experimental data reported in patent publication US20100311748A1, “HETEROCYCLIC AMIDES USEFUL FOR THE TREATMENT OF CANCER AND PSORIASIS” (ASTRAZENECA AB, priority 2007, published 2010).

Tested on: Hedgehog pathway
Assay: Hedgehog Pathway Cellular Differentiation Assay (alkaline phosphatase production in C3H10T1/2 cells with Shh ligand)
Format: cell-based
Details: Mus musculus, C3H 10T1/2, 3 μM compound, Shh ligand conditioned media, 72 h, alkaline phosphatase
Protocol: Hedgehog Pathway Cellular Differentiation Assay The ability of compounds of the invention to inhibit the Hedgehog pathway can be determined by the following cell differentiation assay. C3H10T1/2 cells were plated into 384 well plates at a concentration of 5000 cells/well in DMEM/10% FBS. The following day the media was changed to 20% conditioned media (low serum media DMEM/2% FBS+Shh ligand). Compounds were solubilized in 100% DMSO to a concentration of 10 mM and then serially diluted three fold in 100% DMSO. The highest concentration in the cell plate was 30 μM and the lowest was 3 nM. The compounds were then added to the cells. Cell plates were incubated with the compound for 72 h and then assayed for alkaline phosphatase production using pNp as a substrate. Briefly, after 72 h of incubation, the media was aspirated from the cells and washed with 30 μl of PBS. PBS was aspirated off the cells and 15 μl of 1×RIPA cell lysis buffer is added on to the cells. The cell plates are then incubated at −80° C. for 30 minutes to insure proper cell lysis. The plates were then thawed back to RT. The substrate solution containing pNp at 1 mg/mL in diethanolamine buffer pH 9.8 was then added onto the lysed cells. The plates were incubated at 30° C. for color development and read at an absorbance of 405 nm. The percent inhibition and IC50 value was then calculated from the absorbance data using standard procedures.

Cc1ccc(-c2cc(C(F)(F)F)n[nH]2)cc1NC(=O)c1ccc(OCc2ccccn2)cc1 [Example 37, N-[2-methyl-5-[5-(trifluoromethyl)-2H-pyrazol-3-yl]phenyl]-4-(pyridin-2-ylmethoxy)benzamide]
inhibition at 3 µM: 38.2%

Cc1nnc(-c2ccc(C)c(NC(=O)c3ccc(OCc4ccccn4)cc3)c2)o1 [Example 38, N-(2-methyl-5-(5-methyl-1,3,4-oxadiazol-2-yl)phenyl)-4-(pyridin-2-ylmethoxy)benzamide]
inhibition at 3 µM: 24.2%

Cc1ccc(-c2nnc(C)n2C)cc1NC(=O)c1ccc(OCc2ccccn2)cc1 [Example 39, N-(5-(4,5-dimethyl-4H-1,2,4-triazol-3-yl)-2-methylphenyl)-4-(pyridin-2-ylmethoxy)benzamide]
inhibition at 3 µM: 7.8%

Cc1nc(-c2ccc(C)c(NC(=O)c3ccc(OCc4ccccn4)cc3)c2)no1 [Example 40, N-(2-methyl-5-(5-methyl-1,2,4-oxadiazol-3-yl)phenyl)-4-(pyridin-2-ylmethoxy)benzamide]
inhibition at 3 µM: 6.5%

COc1cccc(COc2ccc(C(=O)Nc3cc(-c4ncc[nH]4)ccc3C)cc2)c1 [Example 41, N-(5-(1H-imidazol-2-yl)-2-methylphenyl)-4-(3-methoxybenzyloxy)benzamide]
inhibition at 3 µM: 51.9%

COc1cc(COc2ccc(C(=O)Nc3cc(-c4nc(C)cn4C)ccc3C)cc2)cc(OC)c1 [Example 42, 4-[(3,5-dimethoxyphenyl)methoxy]-N-[5-(1,4-dimethylimidazol-2-yl)-2-methyl-phenyl]benzamide]
inhibition at 3 µM: 79.4%

COc1cc(COc2ccc(C(=O)Nc3cc(-c4nc(C)c[nH]4)ccc3C)cc2)cc(OC)c1 [Example 43, 4-[(3,5-dimethoxyphenyl)methoxy]-N-[2-methyl-5-(4-methyl-1H-imidazol-2-yl)phenyl]benzamide]
inhibition at 3 µM: 81.4%

Cc1c[nH]c(-c2ccc(C)c(NC(=O)c3ccc(OCc4ccccc4C#N)cc3)c2)n1 [Example 44, 4-[(2-cyanophenyl)methoxy]-N-[2-methyl-5-(4-methyl-1H-imidazol-2-yl)phenyl]benzamide]
inhibition at 3 µM: 80.7%

Cc1cn(C)c(-c2ccc(C)c(NC(=O)c3ccc(OCc4ccccc4C#N)cc3)c2)n1 [Example 45, 4-[(2-cyanophenyl)methoxy]-N-[5-(1,4-dimethylimidazol-2-yl)-2-methyl-phenyl]benzamide]
inhibition at 3 µM: 80.3%

Cc1ccc(-c2ncc[nH]2)cc1NC(=O)c1ccc(OCc2ccccc2C#N)cc1 [Example 46, 4-[(2-cyanophenyl)methoxy]-N-[5-(1H-imidazol-2-yl)-2-methyl-phenyl]benzamide]
inhibition at 3 µM: 81.9%

COc1cc(COc2ccc(C(=O)Nc3cc(-c4ncc[nH]4)ccc3C)cc2)cc(OC)c1 [Example 47, 4-[(3,5-dimethoxyphenyl)methoxy]-N-[5-(1H-imidazol-2-yl)-2-methyl-phenyl]benzamide]
inhibition at 3 µM: 80.9%

COc1cc(COc2ccc(C(=O)Nc3cc(-c4ncc(C)n4C)ccc3C)cc2)cc(OC)c1 [Example 48, 4-[(3,5-dimethoxyphenyl)methoxy]-N-[5-(1,5-dimethylimidazol-2-yl)-2-methyl-phenyl]benzamide]
inhibition at 3 µM: 81.5%

Cc1ccc(-c2ncc(C)n2C)cc1NC(=O)c1ccc(OCc2ccccc2C#N)cc1 [Example 49, 4-[(2-cyanophenyl)methoxy]-N-[5-(1,5-dimethylimidazol-2-yl)-2-methyl-phenyl]benzamide]
inhibition at 3 µM: 82%

COc1cc(COc2ccc(C(=O)Nc3cc(-c4nccn4C)ccc3C)cc2)cc(OC)c1 [Example 50, 4-[(3,5-dimethoxyphenyl)methoxy]-N-[2-methyl-5-(1-methylimidazol-2-yl)phenyl]benzamide]
inhibition at 3 µM: 80.5%

Cc1ccc(-c2nccn2C)cc1NC(=O)c1ccc(OCc2ccccc2C#N)cc1 [Example 51, 4-[(2-cyanophenyl)methoxy]-N-[2-methyl-5-(1-methylimidazol-2-yl)phenyl]benzamide]
inhibition at 3 µM: 82.1%

Cc1ccc(-c2cncn2C)cc1NC(=O)c1ccc(OCc2ccccc2C#N)cc1 [Example 52, 4-[(2-cyanophenyl)methoxy]-N-[2-methyl-5-(3-methylimidazol-4-yl)phenyl]benzamide]
inhibition at 3 µM: 79.8%

Cc1ccc(-c2cn(C)cn2)cc1NC(=O)c1ccc(OCc2ccccc2C#N)cc1 [Example 53, 4-[(2-cyanophenyl)methoxy]-N-[2-methyl-5-(1-methylimidazol-4-yl)phenyl]benzamide]
inhibition at 3 µM: 80.4%

Cc1ccc(-c2nc[nH]c2C)cc1NC(=O)c1ccc(OCc2ccccc2C#N)cc1 [Example 54, 4-[(2-cyanophenyl)methoxy]-N-[2-methyl-5-(5-methyl-1H-imidazol-4-yl)phenyl]benzamide]
inhibition at 3 µM: 77.5%

Cc1ccc(-c2cnc(C)n2C)cc1NC(=O)c1ccc(OCc2ccccc2C#N)cc1 [Example 55, 4-[(2-cyanophenyl)methoxy]-N-[5-(2,3-dimethylimidazol-4-yl)-2-methyl-phenyl]benzamide]
inhibition at 3 µM: 84.3%

COc1ccnc(COc2ccc(C(=O)Nc3cc(-c4ncc[nH]4)ccc3C)cc2)c1OC [Example 56, 4-[(3,4-dimethoxypyridin-2-yl)methoxy]-N-[5-(1H-imidazol-2-yl)-2-methylphenyl]benzamide]
inhibition at 3 µM: 67.4%

Cc1ccc(-c2ncc[nH]2)cc1NC(=O)c1ccc(OCc2cc3c(cc2Cl)OCO3)cc1 [Example 57, 4-[(6-chloro-1,3-benzodioxol-5-yl)methoxy]-N-[5-(1H-imidazol-2-yl)-2-methylphenyl]benzamide]
inhibition at 3 µM: 73.6%

Cc1ccc(-c2ncc[nH]2)cc1NC(=O)c1ccc(OCc2ccccc2)cc1 [Example 58, N-(5-(1H-imidazol-2-yl)-2-methylphenyl)-4-(benzyloxy)benzamide]
inhibition at 3 µM: 86.2%

Cc1ccc(-c2ncc[nH]2)cc1NC(=O)c1ccc(OCc2ccc(F)cc2)cc1 [Example 59, 4-[(4-Fluorophenyl)methoxy]-N-[5-(1H-imidazol-2-yl)-2-methylphenyl]benzamide]
inhibition at 3 µM: 82.5%

Cc1ccc(-c2ncc[nH]2)cc1NC(=O)c1ccc(OCc2ccc(S(C)(=O)=O)cc2)cc1 [Example 60, N-[5-(1H-imidazol-2-yl)-2-methylphenyl]-4-{[4-(methylsulfonyl)benzyl]oxy}benzamide]
inhibition at 3 µM: 79.7%

Cc1ccc(-c2ncc[nH]2)cc1NC(=O)c1ccc(OCc2cccc(C#N)c2)cc1 [Example 61, 4-[(3-cyanobenzyl)oxy]-N-[5-(1H-imidazol-2-yl)-2-methylphenyl]benzamide]
inhibition at 3 µM: 82.1%

Cc1ccc(-c2ncc[nH]2)cc1NC(=O)c1ccc(OCc2ccc(CO)cc2)cc1 [Example 62, 4-{[4-(hydroxymethyl)benzyl]oxy}-N-[5-(1H-imidazol-2-yl)-2-methylphenyl]benzamide]
inhibition at 3 µM: 76.9%

COc1ccccc1COc1ccc(C(=O)Nc2cc(-c3ncc[nH]3)ccc2C)cc1 [Example 63, N-[5-(1H-imidazol-2-yl)-2-methylphenyl]-4-[(2-methoxybenzyl)oxy]benzamide]
inhibition at 3 µM: 79.8%

Cc1ccc(-c2ncc[nH]2)cc1NC(=O)c1ccc(OCc2ccccc2C(F)(F)F)cc1 [Example 64, N-[5-(1H-imidazol-2-yl)-2-methylphenyl]-4-{[2-(trifluoromethyl)benzyl]oxy}benzamide]
inhibition at 3 µM: 79.6%

Cc1ccc(-c2ccccc2)cc1NC(=O)c1ccc(OCc2ccccn2)cc1 [Example 65, N-(2-methyl-5-phenyl-phenyl)-4-(pyridin-2-ylmethoxy)benzamide]
inhibition at 3 µM: 50%

Cc1cn(C)c(-c2ccc(C)c(NC(=O)c3ccc(OCc4cccc(OCCN5CCOCC5)c4)cc3)c2)n1 [Example 66, N-[5-(1,4-dimethyl-1H-imidazol-2-yl)-2-methylphenyl]-4-{[3-(2-morpholin-4-ylethoxy)benzyl]oxy}benzamide]
inhibition at 3 µM: 69.6%

Cc1cc(C)c(-c2ncc[nH]2)cc1NC(=O)c1ccc(OCc2ccccn2)cc1 [Example 67, N-[5-(1H-imidazol-2-yl)-2,4-dimethylphenyl]-4-(pyridin-2-ylmethoxy)benzamide]
inhibition at 3 µM: 77.1%

Cc1cc(C)c(-c2nc3ccccc3[nH]2)cc1NC(=O)c1ccc(OCc2ccccn2)cc1 [Example 68, N-[5-(1H-benzimidazol-2-yl)-2,4-dimethylphenyl]-4-(pyridin-2-ylmethoxy)benzamide]
inhibition at 3 µM: 83.3%

Cc1cc(C)c(-c2ncc(C)n2C)cc1NC(=O)c1ccc(OCc2ccccn2)cc1 [Example 69, N-[5-(1,5-dimethyl-1H-imidazol-2-yl)-2,4-dimethylphenyl]-4-(pyridin-2-ylmethoxy)benzamide]
inhibition at 3 µM: 83.9%

Cc1cc(C)c(-c2cnc(C)n2C)cc1NC(=O)c1ccc(OCc2ccccn2)cc1 [Example 70, N-[5-(1,2-dimethyl-1H-imidazol-5-yl)-2,4-dimethylphenyl]-4-(pyridin-2-ylmethoxy)benzamide]
inhibition at 3 µM: 78.1%

Cc1cc(C)c(-c2cn(C)cn2)cc1NC(=O)c1ccc(OCc2ccccn2)cc1 [Example 71, N-[2,4-dimethyl-5-(1-methyl-1H-imidazol-4-yl)phenyl]-4-(pyridin-2-ylmethoxy)benzamide]
inhibition at 3 µM: 84.9%

Cc1cc(C)c(-c2cn(C)c(C)n2)cc1NC(=O)c1ccc(OCc2ccccn2)cc1 [Example 73, N-(5-(1,2-dimethyl-1H-imidazol-4-yl)-2,4-dimethylphenyl)-4-(pyridin-2-ylmethoxy)benzamide]
inhibition at 3 µM: 85.8%
